According to patent publication US11932653B2, “Lycorine derivative, and pharmaceutical composition and use thereof” (priority 2018, dated 2024):
“And” between values parts separate entries of the source, which are not always exact repeats. Equal values may be shown once.

Legend:
[1] = Pharmacokinetic experiment in plasma; format: in vivo; details: male ICR mice, Compound 6 1.5 mg/kg ip
Procedure: (§1) Male ICR mice weighing 20-22 g were intraperitoneally injected with Compound 6 (1.5 mg/kg), and then blood was taken from the orbit at 5 min, 10 min, 15 min, 30 min, 1 h, 2 h, 4 h, 6 h, 8 h, 12 h, and 24 h. The heparin anticoagulant was added, placed on ice, and centrifuged at 7000 r/min for 7 min. The plasma was separated for use. 60 μl of acetonitrile was added to 20 μL of the plasma sample obtained after administration, to precipitate the protein. After high-speed centrifugation at 13300 r/min for 7 min, 60 μl of the supernatant was taken and centrifuged at 13300 r/min for 4 min. 5 μl of the supernatant was taken for UPLC/MS analysis. Plasma pharmacokinetics was analyzed by Winnolin software and fitted by a non-compartmental model.
as §1, with “Compound 20” for “Compound 6”, “protein. […]” for “protein. After high-speed centrifugation at 13300 r/min for 7 min, 60 μl of the supernatant was taken and centrifuged at 13300 r/min for 4 min. 5 μl of the supernatant was taken for UPLC/MS analysis.”

[2] = system: EV71; assay: In-vitro experiment against EV71 virus (RD cells, MTT); format: cell-based
Procedure: (§2) RD cells were seeded into a 96-well plate (10^4 cells/well), and infected with 100× TCID50 of EV71 viruses. After 2 hrs, various concentrations of the derivative were added. […] Uninfected cells were also given various concentrations of the derivative to determine the CC50.

[3] = Cytotoxicity in uninfected RD cells (CC50, MTT); format: cell-based; details: human, Table 1
Procedure: as §2
(§3) RD cells were seeded into a 96-well plate (10^4 cells/well), and infected with 100×TCID50 of CAV16 viruses. After 2 hrs, various concentrations of the derivative were added. […] Uninfected cells were also given various concentrations of the derivative to determine the CC50.

[4] = system: CAV16; assay: In-vitro experiment against Coxsackievirus A16 (CAV16) (RD cells, MTT); format: cell-based, Coxsackievirus Virus A16 (CAV16)
Procedure: as §3

[5] = system: EV71; assay: Therapeutic effect on EV71-infected mice; format: in vivo, ICR mice; details: 7 days
Procedure: 10-day-old SPF grade ICR mice (female:male 1:1) were used. A placebo group and a treatment group with Compound 1 were set, each group having 10 mice. The mice were infected with the virus by intraperitoneal injection. 2 hrs after infection, the mice were administered by intraperitoneal injection. The dosage of Compound 1 was set to 1 mg/kg body weight/day. The mice in the placebo group were injected with the same dose of normal saline, and the mice in each group were administered once a day for consecutive 7 days. From the day of virus infection, the observation was made twice a day for 14 days. The weight, symptoms and survival rate of the mice were recorded.

1-(4-fluoro-phenoxyacetyl)-lycorine [Compound 6]
t1/2z ([1]; title: metabolite of Compound 6, individual animals 1-3, 1.5 mg/kg): 25.719 h and 14.311 h and 26.875 h | t1/2z Mean ± SD ([1]; title: metabolite of Compound 6, mean of 3): 22.3 ± 6.94 h

O=C(COc1ccccc1)OC1C(O)C=C2CCN3Cc4cc5c(cc4C1C23)OCO5 (stereo not shown) [Compound 1, 1-phenoxyacetyl-lycorine]
EC50 ([2]; Enterovirus A, RD cells infected with 100x TCID50 EV71, compound added after 2 hrs, MTT at 48 hrs): 1.64 µM | SI ([2]; selectivity index, EV71, RD cells): 72.41 | CC50 at 48 h [3]: 119 µM | EC50 ([4]; Coxsackievirus, RD cells infected with 100x TCID50 CAV16, compound added after 2 hrs, MTT at 48 hrs): 1.19 µM | SI ([4]; selectivity index, CAV16, RD cells): 99.80 | mortality rate ([5]; 10-day-old ICR mice infected ip with EV71, 1 mg/kg body weight/day ip, observed 14 days, placebo 100%): 40% | recovery of surviving mice ([5]; EV71-infected ICR mice, 1 mg/kg/day ip, after 14 days): the surviving mice recover to normal after 14 days | symptoms, weight loss and paralysis ([5]; EV71-infected ICR mice, 1 mg/kg/day ip, versus placebo): reduced symptoms, and significantly alleviated weight loss and paralysis
